Patent US20160002204A1 (Board of Regents, The University of Texas System, priority 2014, published 2016)

Legend:
A549 cells = experiment: A549 proliferation (viability) assay, Cell Titer Fluor, 72 hours; format: cell-based; conditions: Homo sapiens
Method in brief: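 A549 cells in RPMI 1640 with 10% dialyzed FBS were seeded at 1000 cells/well, grown 24 h, then exposed to compound (0.5% DMSO final) for 72 h at 37 °C, 5% CO2. Viability was read by Cell Titer Fluor fluorescence; EC50 from four-parameter logistic fit.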

[1] = target: T1, GLS1 (purified recombinant human GAC) (Homo sapiens, UniProt O94925); experiment: GLS1 enzymatic activity assay (dual-coupled, Amplex UltraRed/resorufin); format: biochemical
T1 sequence (O94925 55-598 isoform O94925-3 limits assumed): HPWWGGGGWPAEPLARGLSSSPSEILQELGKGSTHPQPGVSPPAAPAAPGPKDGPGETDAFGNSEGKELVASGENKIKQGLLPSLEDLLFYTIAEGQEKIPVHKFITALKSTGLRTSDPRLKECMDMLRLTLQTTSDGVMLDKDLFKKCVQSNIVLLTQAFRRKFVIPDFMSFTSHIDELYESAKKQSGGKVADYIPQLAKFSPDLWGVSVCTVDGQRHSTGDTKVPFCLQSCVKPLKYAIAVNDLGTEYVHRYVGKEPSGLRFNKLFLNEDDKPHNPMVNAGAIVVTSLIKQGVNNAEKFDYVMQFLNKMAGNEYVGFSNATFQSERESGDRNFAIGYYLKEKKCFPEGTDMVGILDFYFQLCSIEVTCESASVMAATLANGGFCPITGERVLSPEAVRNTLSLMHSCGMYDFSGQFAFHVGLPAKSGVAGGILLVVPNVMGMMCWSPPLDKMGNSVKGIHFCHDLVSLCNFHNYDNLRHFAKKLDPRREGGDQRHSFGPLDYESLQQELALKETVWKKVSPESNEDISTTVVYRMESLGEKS
Method in brief: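 In this coupled fluorometric format, phosphate-activated GAC (2 nM, 50 mM phosphate) is pre-exposed to compound for 10 min before 1 mM glutamine addition. Product is tracked as resorufin (530/590 nm) over time or at 20 min, and potency is derived by logistic fitting.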

| SMILES | EC50 (A549 cells) [nM] | IC50 [1] [nM] |
| --- | --- | --- |
| O=C(NCc1cncc(C(F)(F)F)c1)c1cn(CC(F)CCn2ccc(NC(=O)C3CCCC3)c(F)c2=O)nn1 (stereo not drawn) [Example 364, 1-[4-(4-cyclopentaneamido-3-fluoro-2-oxo-1,2-dihydropyridin-1-yl)-2-fluorobutyl]-N-{[5-(trifluoromethyl)pyridin-3-yl]methyl}-1H-1,2,3-triazole-4-carboxamide] | < 100 | < 100 |
| Nc1ccn(CCC(F)Cn2cc(C(=O)NCc3ccc(C(F)(F)F)nc3)nn2)c(=O)c1F (stereo not drawn) [Example 366, 1-[4-(4-amino-3-fluoro-2-oxo-1,2-dihydropyridin-1-yl)-2-fluorobutyl]-N-{[6-(trifluoromethyl)pyridin-3-yl]methyl}-1H-1,2,3-triazole-4-carboxamide] | > 5000 | > 5000 |
| O=C(Cc1ccccc1)Nc1ccn(CCC(F)Cn2cc(C(=O)NCc3ccc(C(F)(F)F)nc3)nn2)c(=O)c1F (stereo not drawn) [Example 367, 1-{2-fluoro-4-[3-fluoro-2-oxo-4-(2-phenylacetamido)-1,2-dihydropyridin-1-yl]butyl}-N-{[6-(trifluoromethyl)pyridin-3-yl]methyl}-1H-1,2,3-triazole-4-carboxamide] | 100 to 500 | < 100 |
| C[C@H](C(=O)Nc1ccn(CCC(F)Cn2cc(C(=O)NCc3ccc(C(F)(F)F)nc3)nn2)c(=O)c1F)c1ccccc1 (stereo partly drawn) [Example 368, 1-(2-fluoro-4-{3-fluoro-2-oxo-4-[(2S)-2-phenylpropanamido]-1,2-dihydropyridin-1-yl}butyl)-N-{[6-(trifluoromethyl)pyridin-3-yl]methyl}-1H-1,2,3-triazole-4-carboxamide] | < 100 | < 100 |
| O=C(CC1CCCC1)Nc1ccn(CCC(F)Cn2cc(C(=O)NCc3ccc(C(F)(F)F)nc3)nn2)c(=O)c1F (stereo not drawn) [Example 369, 1-{4-[4-(2-cyclopentylacetamido)-3-fluoro-2-oxo-1,2-dihydropyridin-1-yl]-2-fluorobutyl}-N-{[6-(trifluoromethyl)pyridin-3-yl]methyl}-1H-1,2,3-triazole-4-carboxamide] | < 100 | < 100 |
| O=C(NCc1ccc(C(F)(F)F)nc1)c1cn(CC(F)CCn2ccc(NC(=O)C3CCCC3)c(F)c2=O)nn1 (stereo not drawn) [Example 370, 1-[4-(4-cyclopentaneamido-3-fluoro-2-oxo-1,2-dihydropyridin-1-yl)-2-fluorobutyl]-N-{[6-(trifluoromethyl)pyridin-3-yl]methyl}-1H-1,2,3-triazole-4-carboxamide] | 100 to 500 | 100 to 500 |
| O=C(Cc1ccccc1F)Nc1ccn(CCC(F)Cn2cc(C(=O)NCc3ccc(C(F)(F)F)nc3)nn2)c(=O)c1F (stereo not drawn) [Example 371, 1-(2-fluoro-4-{3-fluoro-4-[2-(2-fluorophenyl)acetamido]-2-oxo-1,2-dihydropyridin-1-yl}butyl)-N-{[6-(trifluoromethyl)pyridin-3-yl]methyl}-1H-1,2,3-triazole-4-carboxamide] | 100 to 500 | < 100 |
| O=C(NCc1ccc(C(F)(F)F)nc1)c1cn(CC(F)CCn2ccc(NC(=O)C(F)c3ccccc3)c(F)c2=O)nn1 (stereo not drawn) [Example 372, l-{2-fluoro-4-[3-fluoro-4-(2-fluoro-2-phenylacetamido)-2-oxo-1,2-dihydropyridin-1-yl]butyl}-N-{[6-(trifluoromethyl)pyridin-3-yl]methyl}-1H-1,2,3-triazole-4-carboxamide] | 100 to 500 | < 100 |
| O=C(Cc1ccccc1)Nc1ccn(CCC(F)Cn2cc(C(=O)NCc3ncccc3F)nn2)c(=O)c1F (stereo not drawn) [Example 373, 1-{2-fluoro-4-[3-fluoro-2-oxo-4-(2-phenylacetamido)-1,2-dihydropyridin-1-yl]butyl}-N-[(3-fluoropyridin-2-yl)methyl]-1H-1,2,3-triazole-4-carboxamide] | 500 to 5000 | 100 to 500 |
